IC50 data for three compounds are collected here from paper PMC9281569, “Two HCN4 Channels Play Functional Roles in the Zebrafish Heart” (Frontiers in Physiology, 2022).

One test deals with T1, HsHCN4 (Homo sapiens, UniProt Q9Y3Q4).
T1 construct: host or cells: Xenopus laevis oocytes injected with cRNA (pGEMHE vector)
T1 sequence (Q9Y3Q4 1-1203): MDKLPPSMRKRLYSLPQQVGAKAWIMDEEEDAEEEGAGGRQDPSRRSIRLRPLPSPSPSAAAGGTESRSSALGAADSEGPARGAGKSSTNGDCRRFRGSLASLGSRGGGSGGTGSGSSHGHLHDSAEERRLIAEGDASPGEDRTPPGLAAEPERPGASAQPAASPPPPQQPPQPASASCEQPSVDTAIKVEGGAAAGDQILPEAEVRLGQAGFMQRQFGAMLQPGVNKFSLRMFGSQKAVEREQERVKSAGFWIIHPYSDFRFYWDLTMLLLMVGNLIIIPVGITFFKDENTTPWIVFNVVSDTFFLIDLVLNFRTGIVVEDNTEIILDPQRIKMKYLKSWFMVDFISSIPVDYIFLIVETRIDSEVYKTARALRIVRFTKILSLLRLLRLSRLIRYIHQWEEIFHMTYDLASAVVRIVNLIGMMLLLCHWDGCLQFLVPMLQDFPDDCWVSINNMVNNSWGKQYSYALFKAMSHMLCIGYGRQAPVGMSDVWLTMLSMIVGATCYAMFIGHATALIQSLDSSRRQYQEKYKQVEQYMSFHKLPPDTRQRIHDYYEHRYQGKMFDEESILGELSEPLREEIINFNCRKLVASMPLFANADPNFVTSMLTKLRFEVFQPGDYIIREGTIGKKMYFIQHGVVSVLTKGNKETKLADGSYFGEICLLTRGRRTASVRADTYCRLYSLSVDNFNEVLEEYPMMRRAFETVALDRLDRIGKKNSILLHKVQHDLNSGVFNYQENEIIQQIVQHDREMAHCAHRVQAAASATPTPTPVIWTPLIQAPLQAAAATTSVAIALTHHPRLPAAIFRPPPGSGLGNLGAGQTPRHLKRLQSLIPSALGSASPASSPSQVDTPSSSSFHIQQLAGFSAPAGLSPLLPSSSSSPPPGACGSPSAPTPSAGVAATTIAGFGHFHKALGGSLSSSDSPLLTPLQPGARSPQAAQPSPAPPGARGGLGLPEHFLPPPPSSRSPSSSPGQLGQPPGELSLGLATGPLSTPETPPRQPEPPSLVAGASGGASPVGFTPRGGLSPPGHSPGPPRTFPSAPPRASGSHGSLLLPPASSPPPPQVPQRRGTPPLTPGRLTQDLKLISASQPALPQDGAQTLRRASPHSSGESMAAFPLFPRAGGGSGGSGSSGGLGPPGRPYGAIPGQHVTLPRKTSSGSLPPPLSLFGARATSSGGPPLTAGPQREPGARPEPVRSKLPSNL
Put plainly: Inhibition of HCN4 currents in Xenopus oocytes, two-electrode voltage clamp. The test is classed as cell-based. The following applies: holding −30 mV, hyperpolarized to −120 mV for 2 s, room temperature. On the technique in general: Two-electrode voltage clamp holds a large cell at a set potential and records current.

A further test concerns the target T2, DrHCN4L (Danio rerio, UniProt A0A8N7TEJ3).
T2 sequence (A0A8N7TEJ3 1-1188): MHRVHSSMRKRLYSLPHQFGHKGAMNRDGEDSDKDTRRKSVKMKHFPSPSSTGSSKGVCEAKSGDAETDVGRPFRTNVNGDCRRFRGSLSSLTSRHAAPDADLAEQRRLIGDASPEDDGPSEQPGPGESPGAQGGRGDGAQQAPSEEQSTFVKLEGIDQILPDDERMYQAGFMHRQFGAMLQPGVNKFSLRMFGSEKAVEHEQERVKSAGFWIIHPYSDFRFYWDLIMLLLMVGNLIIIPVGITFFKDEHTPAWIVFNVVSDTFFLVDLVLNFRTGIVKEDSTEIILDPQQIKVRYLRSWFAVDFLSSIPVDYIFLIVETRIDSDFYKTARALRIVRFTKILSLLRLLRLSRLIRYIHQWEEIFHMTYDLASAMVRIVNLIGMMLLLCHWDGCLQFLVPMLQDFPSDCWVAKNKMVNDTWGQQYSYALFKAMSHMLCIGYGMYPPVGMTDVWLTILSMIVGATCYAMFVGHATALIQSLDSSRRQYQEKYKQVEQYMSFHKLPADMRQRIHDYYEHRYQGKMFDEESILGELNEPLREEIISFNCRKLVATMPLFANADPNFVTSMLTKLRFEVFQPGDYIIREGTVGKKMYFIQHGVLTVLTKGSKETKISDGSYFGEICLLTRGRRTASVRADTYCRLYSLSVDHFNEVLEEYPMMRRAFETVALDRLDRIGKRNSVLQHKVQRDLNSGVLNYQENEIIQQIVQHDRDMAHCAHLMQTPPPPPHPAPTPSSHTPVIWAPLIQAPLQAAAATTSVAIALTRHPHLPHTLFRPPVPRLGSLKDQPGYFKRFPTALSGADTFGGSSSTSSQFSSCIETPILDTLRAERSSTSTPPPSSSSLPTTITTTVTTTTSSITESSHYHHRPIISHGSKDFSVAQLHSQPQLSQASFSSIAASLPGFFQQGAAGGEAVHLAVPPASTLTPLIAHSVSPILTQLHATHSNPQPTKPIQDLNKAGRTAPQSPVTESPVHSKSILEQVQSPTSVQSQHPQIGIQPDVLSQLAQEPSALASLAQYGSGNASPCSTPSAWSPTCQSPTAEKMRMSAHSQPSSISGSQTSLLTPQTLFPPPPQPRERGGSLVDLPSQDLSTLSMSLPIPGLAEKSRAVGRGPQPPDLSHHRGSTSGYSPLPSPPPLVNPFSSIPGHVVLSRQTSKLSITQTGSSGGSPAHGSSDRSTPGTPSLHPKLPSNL
The test is described as above. The test is classed as cell-based, zebrafish (Danio rerio). The following applies: holding −30 mV, hyperpolarized to −120 mV for 2 s, room temperature.

Where [1] appears, read: DrHCN4L in Xenopus oocytes, read-out: IC50.

Values joined by “and” are separate entries in the source; they are usually repeats but may differ in a detail not shown here. Equal values may be shown once. Where a name gives a salt, the structure may show the parent alone. Read-outs that look alike come from different tables or passages of the source.

By IC50 is commonly meant the concentration that gives 50% inhibition. For the compound `CCN(c1ccccc1)c1cc(=NC)n(C)c(C)n1.Cl` [ZD7288], the IC50 came to 167 ± 56 µM at HsHCN4 and 596 ± 383 µM on DrHCN4L (setting [1]).
On to `[Cl-].[Cs+]` [Cesium ion, Cesium chloride], for which the IC50 on HsHCN4 was 68.8 ± 14 µM; on HsHCN4 (listed as Cs^+) it was 69 ± 14 µM; at DrHCN4L (DrHCN4L in Xenopus oocytes, listed as Cs^+, read-out: IC50) it was 48 ± 7 µM; at DrHCN4L (setting [1]) it was 48.3 ± 6.9 µM.
As for `COc1cc2c(cc1OC)CC(=O)N(CCCN(C)C[C@H]1Cc3cc(OC)c(OC)cc31)CC2` [Ivabradine, ivabradine hydrochloride], the IC50 against HsHCN4 was 38 µM and 37.6 µM; against DrHCN4L (IC50, DrHCN4L in Xenopus oocytes), 10 µM and 10.4 µM.
